Measured values from patent US20080171721A1, “Halogenated alkyl di- and trisaccharides, pharmaceutical formulations, diagnostic kits and methods of treatment” (priority 2007, published 2008).

How the values were obtained:
S. aureus = assay: Antimicrobial testing, time-kill with plate count; assay type: cell-based, Staphylococcus aureus; settings: antimicrobial if greater than 5 log reduction
Method: (§1) The preferred embodiment was tested for antimicrobial activity using the following procedure.
(§2) A 1% solution of Compound 3 was prepared in DPBS (Dulbecco's phosphate buffered saline). A 25 ml mixture of the 1% Compound 3 and PBS (phosphate buffered saline, pH 7.2 was prepared by mixing 5 ml of the 1% Compound 3 solution and 20 ml of the PBS.
(§3) A 10 ml aliquot of the above mixture was placed into each of two sterile test tubes. One test tube was inoculated with 0.1 ml of S. aureus and the other with 0.1 ml of P. aeruginosa, such that there was a final concentration of 10^6 colony-forming units (CFU)/0.1 mls.
(§4) A various time points, 1.0 ml of each inoculated test sample were removed, diluted 10× with 0.45% saline and plated on trypticase soy agar (TSA) plates.
(§5) The plates were incubated at 30-35° C. for not less than 24 hours. Concentration of CFU in the samples taken at each time point were enumerated by standard methods. The log reduction was calculated for each time period and organism. The log reduction was calculated using the formula: Log reduction=Log inoculums verification−sample log recovery.

P. aeruginosa = assay: Antimicrobial testing, time-kill with plate count; assay type: cell-based, Pseudomonas aeruginosa; settings: antimicrobial if greater than 5 log reduction
Method: as §1, §2, §3, §4, §5

## CCCCCCCCCCCC(=O)OCC1O[C@H](O[C@@]2(CCl)O[C@H](CCl)C(O)C2O)C(O)C(O)[C@H]1Cl (stereo in doubt) [Compound 3, 1′,6′-Dichloro-1′,6′-dideoxy-β-D-fructofuranosyl-4-chloro-4-deoxy-6-O-monododecanoate-α-galactopyranoside]
S. aureus
  antimicrobial effect: has antimicrobial effect against S. aureus
P. aeruginosa
  antimicrobial effect: not P. aeruginosa
